Reference: patent publication US10869493B2, “Reduced-sweetener products, flavoring mixtures for said reduced-sweetener products and process for the production of products of this type” (SYMRISE AG, priority 2009, dated 2020)

How the values were obtained:
panelists = assay: Determination of the sucrose equivalence using a comparative series of sucrose concentrations in water; format: in vivo, human; details: concentration used in preparation C (1 ppm), method of Application example 1, first part
Source text: The sucrose equivalence ratio of the sucrose equivalence of the concentration of the substances or substance of group (i) to the sucrose equivalence of the concentration of the substance or substances of group (ii) in the corresponding flavoring mixture (and in other mixtures, cf. further below), is established as follows: • 1. A comparative series of different sucrose concentrations in water is produced. Preferred concentrations are 0; 0.25; 0.5; 0.75; 1; 1.5; 2; 3; 4 and 5% by weight sucrose in water. Other concentrations, in particular higher concentrations, can optionally also be used for the comparative series. • 2. […] The determined sucrose equivalence is produced from the average of individual gradings by the individual panelists. • 6. The dilution ratio is then determined, using which solution 1 can be set at a sucrose equivalence of 2% by weight sucrose in water. […] It is of course sensible to have the determined dilution ratio tested once more by the panelists. • 7. Solution 2 (containing the compound(s) of group (ii)) is then diluted in the dilution ratio determined under 6. • 8. Subsequently, the dilute solution 2 is also tasted and compared to the sucrose test series, graded by the panelists and a corresponding sucrose equivalence value is determined (analogously to points 4. and 5.). • 9. […]

[1] = Stability of phyllodulcin content under elevated thermal stress (HPLC, UV detection); format: physicochemical; details: 100 mg/l phyllodulcin in aqueous phosphate buffer pH 9, stored at 40° C., compared to the same quantity as extract
Experimental: The exemplary extract was tested for stability under an elevated thermal stress in comparison to pure phyllodulcin. A solution of 100 mg/l of phyllodulcin and 1.38% of the exemplary ethanolic extract (corresponds to 100 mg of phyllodulcin) in an aqueous phosphate buffer, adjusted to pH 9, was tested immediately after preparation and then at regular weekly intervals for its phyllodulcin content. In this respect, an aliquot of the respective test solution was separated in an HPLC installation (RP phase) and quantified by UV detection compared to a calibration with pure phyllodulcin. The samples were stored at 40° C. in closed glass vessels to prevent evaporation. The phyllodulcin contents of the test solutions are plotted against time in FIG. 1.

Decomposition of phyllodulcin over time (FIG. 1) [1]	SMILES	sucrose equivalence alone in water (panelists)
–	COc1ccc(CCC(=O)c2c(O)cc(O[C@@H]3O[C@H](CO)[C@@H](O)[C@H](O)[C@H]3O[C@@H]3O[C@@H](C)[C@H](O)[C@@H](O)[C@H]3O)cc2O)cc1O [neohesperidin dihydrochalcone]	approximately 0.5%
decomposed more rapidly	COc1ccc([C@H]2Cc3cccc(O)c3C(=O)O2)cc1O [phyllodulcin]	–
